According to the supplement of paper PMC13380429:

Tests used:
Conditions in all cases: 72 h
Calu-3 [1] = assay: drug sensitivity score (DSS) for viability; higher = more toxic; extreme values may be limits of the assay
Vero E6 [2] = assay: as above
Caco-2 [3] = assay: as above
HepG2 [4] = assay: as above
U2OS [5] = assay: as above
Calu-3 [6] = assay: cell viability relative to DMSO; higher = less toxic
Vero E6 [7] = assay: as above
Caco-2 [8] = assay: as above
HepG2 [9] = assay: as above
U2OS [10] = assay: as above
Calu-3 [11] = assay: relative viability EC50 (midpoint between 100% and the lowest measured viability); higher = less toxic
Vero E6 [12] = assay: as above
Caco-2 [13] = assay: as above
U2OS [14] = assay: as above
HepG2 [15] = assay: as above

Compound	drug sensitivity score (Calu-3 [1])	drug sensitivity score (Vero E6 [2])	drug sensitivity score (Caco-2 [3])	drug sensitivity score (HepG2 [4])	drug sensitivity score (U2OS [5])	cell viability (Calu-3 [6]; 1 nM) [%]	cell viability (Calu-3 [6]; 10 nM) [%]	cell viability (Calu-3 [6]; 100 nM) [%]	cell viability (Calu-3 [6]; 1000 nM) [%]	cell viability (Calu-3 [6]; 10000 nM) [%]	cell viability (Vero E6 [7]; 1 nM) [%]	cell viability (Vero E6 [7]; 10 nM) [%]	cell viability (Vero E6 [7]; 100 nM) [%]	cell viability (Vero E6 [7]; 1000 nM) [%]	cell viability (Vero E6 [7]; 10000 nM) [%]	cell viability (Caco-2 [8]; 1 nM) [%]	cell viability (Caco-2 [8]; 10 nM) [%]	cell viability (Caco-2 [8]; 100 nM) [%]	cell viability (Caco-2 [8]; 1000 nM) [%]	cell viability (Caco-2 [8]; 10000 nM) [%]	cell viability (HepG2 [9]; 1 nM) [%]	cell viability (HepG2 [9]; 10 nM) [%]	cell viability (HepG2 [9]; 100 nM) [%]	cell viability (HepG2 [9]; 1000 nM) [%]	cell viability (HepG2 [9]; 10000 nM) [%]	cell viability (U2OS [10]; 1 nM) [%]	cell viability (U2OS [10]; 10 nM) [%]	cell viability (U2OS [10]; 100 nM) [%]	cell viability (U2OS [10]; 1000 nM) [%]	cell viability (U2OS [10]; 10000 nM) [%]	relative viability EC50 (Calu-3 [11]) [µM]	relative viability EC50 (Vero E6 [12]) [µM]	relative viability EC50 (Caco-2 [13]) [µM]	relative viability EC50 (U2OS [14]) [µM]	relative viability EC50 (HepG2 [15]) [µM]
C[C@@H]1CCO[C@H]2Cn3cc(C(=O)NCc4ccc(F)cc4F)c(=O)c(O)c3C(=O)N12 [dolutegravir]	0	0.4	0.1	2.1	0	117	113	101	91.1	105	97.3	99.7	97	100	81.9	102	94.4	97.6	97.7	88.2	101	114	107	100	57.6	104	103	104	95.6	98.5	> 10	> 10	> 10	> 10	–
CNC[C@H](O)c1ccc(O)c(O)c1 [epinephrine]	0	0	0	3.1	0	101	110	111	111	97.3	93.3	89.7	95.1	89.6	111	93.7	105	86.3	98.5	90	108	106	104	94.4	57.5	96.9	101	98.2	104	105	> 10	> 10	> 10	> 10	–
CCOC(=O)[C@@H](N)CCC(=O)N[C@@H](CSCc1ccccc1)C(=O)N[C@@H](C(=O)OCC)c1ccccc1 [ezatiostat]	0	–	0.4	0	0	97.2	103	106	103	91.2	–	–	–	–	–	98.4	93.4	92	91	86.2	101	98.8	99.4	97.1	107	96.9	106	96.1	100	95.3	> 10	–	> 10	> 10	> 10
NC(=O)c1ccc(I)c([N+](=O)[O-])c1 [iniparib]	0	–	–	0	0	110	99	103	102	114	–	–	–	–	–	–	–	–	–	–	91.2	106	107	94.2	106	104	95.8	96.4	104	98.4	> 10	–	–	> 10	> 10
CCCNS(=O)(=O)Nc1ncnc(OCCOc2ncc(Br)cn2)c1-c1ccc(Br)cc1 [macitentan]	0	–	0	1.8	0	97.2	94.1	105	99	103	–	–	–	–	–	102	99.7	102	104	108	99.5	108	92.7	85.5	91	101	99.5	100	99.4	101	> 10	–	> 10	> 10	> 10
O=C(N/N=C/c1ccc([N+](=O)[O-])o1)c1cc([N+](=O)[O-])cc([N+](=O)[O-])c1O [nifursol]	0	–	0	0.3	0	89.1	102	103	94.9	101	–	–	–	–	–	96.9	102	97.1	94.4	90.2	109	100	93	93.7	85.4	96.9	98.3	104	96.8	101	> 10	–	> 10	> 10	> 10
COc1ccc(-c2nc3cc(C4=NNC(=O)CC4C)ccc3[nH]2)cc1 (stereo unspecified) [pimobendan]	0	0	1	1.7	0.5	98	85.8	112	95.8	90.8	105	110	99.2	101	92.7	106	104	98.4	96.4	80.7	120	113	103	105	59.5	107	105	103	97.7	84.7	> 10	> 10	> 10	> 10	–
CCCNCC(O)COc1ccccc1C(=O)CCc1ccccc1 (stereo unspecified) [propafenone]	0	2.9	0	1	0	105	95.3	103	93.7	99.7	106	108	106	92.2	64.9	94.7	89.5	98.4	92.8	88.9	99.3	94	96.4	99.4	75.1	99.1	93.1	95.6	94.3	92.5	> 10	–	> 10	> 10	> 10
